Molecular target: T1, chimeric human H3 receptor (Homo sapiens, UniProt Q9Y5N1)
T1 construct: made in house; host or cells: Sf9 insect cells (baculovirus); P2 membrane preparation
Experiment: Chimeric human H3 receptor GTP binding assay (agonist-stimulated GTP-gamma35S binding, Example 7)
Assay type: biochemical
Details: Table I; P2 membranes of Sf9 cells, 1 μM histamine as agonist, Ki from IC50 by Cheng-Prusoff
Summary of the method: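 Sf9 membranes co-expressing chimeric human H3 receptor and heterotrimeric G-protein, 35 μg/tube, in pH 7.4 Tris buffer with 10 μM GDP. Test compounds (10^−10–10^−6 M) competed against 1 μM histamine, […] GTP-gamma35S, 60 min at room temperature. Filter-bound radioactivity counted; IC50 converted to Ki by Cheng-Prusoff. Agonism/inverse agonism tested without histamine (EC50).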

T1 sequence (Q9Y5N1 with tags, fused parts or gaps): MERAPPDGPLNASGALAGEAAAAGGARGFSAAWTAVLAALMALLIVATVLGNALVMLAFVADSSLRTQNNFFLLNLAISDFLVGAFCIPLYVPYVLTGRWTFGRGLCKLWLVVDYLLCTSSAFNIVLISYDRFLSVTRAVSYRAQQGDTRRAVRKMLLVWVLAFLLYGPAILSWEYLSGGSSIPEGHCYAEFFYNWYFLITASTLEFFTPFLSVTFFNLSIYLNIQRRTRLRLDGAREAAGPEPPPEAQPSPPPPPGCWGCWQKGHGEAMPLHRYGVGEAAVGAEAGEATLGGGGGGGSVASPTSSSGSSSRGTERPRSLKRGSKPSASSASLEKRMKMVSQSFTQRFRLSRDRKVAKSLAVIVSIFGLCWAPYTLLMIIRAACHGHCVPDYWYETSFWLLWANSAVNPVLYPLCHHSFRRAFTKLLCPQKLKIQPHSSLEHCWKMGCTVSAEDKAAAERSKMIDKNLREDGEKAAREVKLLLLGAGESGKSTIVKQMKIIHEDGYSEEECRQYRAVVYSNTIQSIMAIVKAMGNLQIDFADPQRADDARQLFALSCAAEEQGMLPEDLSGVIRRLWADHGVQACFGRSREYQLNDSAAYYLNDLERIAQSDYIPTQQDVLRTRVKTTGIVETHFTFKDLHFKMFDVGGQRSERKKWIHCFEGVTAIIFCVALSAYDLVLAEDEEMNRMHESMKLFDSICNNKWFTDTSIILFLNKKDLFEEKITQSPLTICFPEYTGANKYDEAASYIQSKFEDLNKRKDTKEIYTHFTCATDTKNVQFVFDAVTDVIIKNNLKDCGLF

Ki, < 1000 nM:
CC(=O)c1ccc2c(c1)CCN(CC(=O)N1CCN(C3CCC3)CC1)C2c1ccccc1Cl (centres unmarked) [Compound 64, 1-{1-(2-chlorophenyl)-2-[2-(4-cyclobutylpiperazin-1-yl)-2-oxoethyl]-1,2,3,4-tetrahydroisoquinolin-6-yl}ethanone]
O=C(CN1CCn2ccnc2C1)N1CCN(C2CCC2)CC1 [Compound 83, 7-[2-(4-cyclobutylpiperazin-1-yl)-2-oxoethyl]-5,6,7,8-tetrahydroimidazo[1,2-a]pyrazine]

Same assay, conditions: Table II "Ki", symbol *; assay of Example 7

Ki, < 1000 nM:
CCC(C)Nc1ccc2c(n1)CCN(CC(=O)N1CCN(C3CCC3)CC1)C2 (centres unmarked) [Compound 655, N-sec-butyl-6-[2-(4-cyclobutylpiperazin-1-yl)-2-oxoethyl]-5,6,7,8-tetrahydro-1,6-naphthyridin-2-amine]
CCCOc1ccc(-c2ccc3c(c2)CCN(CC(=O)N2CCN(C4CCC4)CC2)C3)cc1 [Compound 544, 2-[2-(4-cyclobutylpiperazin-1-yl)-2-oxoethyl]-6-(4-propoxyphenyl)-1,2,3,4-tetrahydroisoquinoline]
Cc1ccc(-c2ccc3c(c2)CCN(CC(=O)N2CCN(C4CCC4)CC2)C3)nc1 [Compound 629, 2-[2-(4-cyclobutylpiperazin-1-yl)-2-oxoethyl]-6-(5-methylpyridin-2-yl)-1,2,3,4-tetrahydroisoquinoline]
CCC(CC)Nc1ccc2c(n1)CCN(CC(=O)N1CCN(C3CCC3)CC1)C2 [Compound 662, 6-[2-(4-cyclobutylpiperazin-1-yl)-2-oxoethyl]-N-(1-ethylpropyl)-5,6,7,8-tetrahydro-1,6-naphthyridin-2-amine]
CCOc1cccc(-c2ccc3c(c2)CCN(CC(=O)N2CCN(C4CCCC4)CC2)C3)c1 [Compound 483, 2-[2-(4-cyclopentylpiperazin-1-yl)-2-oxoethyl]-6-(3-ethoxyphenyl)-1,2,3,4-tetrahydroisoquinoline]
C[C@@H]1CN(C(=O)CN2CCc3cc(-c4cncnc4)ccc3C2)CCN1C1CCCC1 [Compound 611, 2-{2-[(3R)-4-cyclopentyl-3-methylpiperazin-1-yl]-2-oxoethyl}-6-pyrimidin-5-yl-1,2,3,4-tetrahydroisoquinoline]
CC(C)CCNc1ccc2c(n1)CCN(CC(=O)N1CCN(C3CCC3)CC1)C2 [Compound 652, 6-[2-(4-cyclobutylpiperazin-1-yl)-2-oxoethyl]-N-(3-methylbutyl)-5,6,7,8-tetrahydro-1,6-naphthyridin-2-amine]
O=C(CN1CCc2cc(-c3ccc(Cl)cn3)ccc2C1)N1CCN(C2CCC2)CC1 [Compound 631, 6-(5-chloropyridin-2-yl)-2-[2-(4-cyclobutylpiperazin-1-yl)-2-oxoethyl]-1,2,3,4-tetrahydroisoquinoline]
COCc1ccc(-c2ccc3c(c2)CCN(CC(=O)N2CCN(C4CCC4)CC2)C3)nc1 [Compound 646, 2-[2-(4-cyclobutylpiperazin-1-yl)-2-oxoethyl]-6-[5-(methoxymethyl)pyridin-2-yl]-1,2,3,4-tetrahydroisoquinoline]

Same assay, conditions: Table II; "*" = Ki in assay of Example 7 less than 1 micromolar

Ki, < 1000 nM:
O=C(CN1CCc2nn(-c3cncc(C4CC4)n3)cc2C1)N1CCN(C2CCC2)CC1 [Compound 272, 5-[2-(4-cyclobutylpiperazin-1-yl)-2-oxoethyl]-2-(6-cyclopropylpyrazin-2-yl)-4,5,6,7-tetrahydro-2H-pyrazolo[4,3-c]pyridine]
CC1CCC[C@H]2CN(C(=O)CN3CCc4nc(-c5cncnc5)ccc4C3)CCN12 (stereo in doubt) [Compound 177, 6-[2-(6-methyloctahydro-2H-pyrido[1,2-a]pyrazin-2-yl)-2-oxoethyl]-2-pyrimidin-5-yl-5,6,7,8-tetrahydro-1,6-naphthyridine]
CC1CCCC2CN(C(=O)CN3CCc4cc(-c5cccnn5)ccc4C3)CCN12 (centres unmarked) [Compound 165, 6-methyl-2-[(6-pyridazin-3-yl-3,4-dihydroisoquinolin-2(1H)-yl)acetyl]octahydro-2H-pyrido[1,2-a]pyrazine]
CCC(CC)N1CCN(C(=O)CN2CCc3cc(-c4cncnc4)ccc3C2)CC1 [Compound 145, 2-{2-[4-(1-ethylpropyl)piperazin-1-yl]-2-oxoethyl}-6-pyrimidin-5-yl-1,2,3,4-tetrahydroisoquinoline]
COc1ncc(-n2ncc3c2CCN(CC(=O)N2CCN(C4CCC4)CC2)C3)cn1 [Compound 257, 5-[2-(4-cyclobutylpiperazin-1-yl)-2-oxoethyl]-1-(2-methoxypyrimidin-5-yl)-4,5,6,7-tetrahydro-1H-pyrazolo[4,3-c]pyridine]
CCN(C)c1ccc2c(n1)CCN(CC(=O)N1CCN(C3CCC3)CC1)C2 [Compound 245, 6-[2-(4-cyclobutylpiperazin-1-yl)-2-oxoethyl]-N-ethyl-N-methyl-5,6,7,8-tetrahydro-1,6-naphthyridin-2-amine]
O=C(CN1CCc2cc(N3CCCCC3=O)ccc2C1)N1CCN(C2CCC2)CC1 [Compound 211, 1-{2-[2-(4-cyclobutylpiperazin-1-yl)-2-oxoethyl]-1,2,3,4-tetrahydroisoquinolin-6-yl}piperidin-2-one]
O=C(CN1CCc2nc(-c3ccncc3)ncc2C1)N1CCN(C2CCCC2)CC1 [Compound 138, 6-[2-(4-cyclopentylpiperazin-1-yl)-2-oxoethyl]-2-pyridin-4-yl-5,6,7,8-tetrahydropyrido[4,3-d]pyrimidine]
O=C(CN1CCc2nc(N3CCC(F)(F)CC3)ccc2C1)N1CCN(C2CCC2)CC1 [Compound 183, 6-[2-(4-cyclobutylpiperazin-1-yl)-2-oxoethyl]-2-(4,4-difluoropiperidin-1-yl)-5,6,7,8-tetrahydro-1,6-naphthyridine]
CSc1nc2c(o1)CN(CC(=O)N1CCN(C3CCC3)CC1)CC2 [Compound 107, 5-[2-(4-cyclobutylpiperazin-1-yl)-2-oxoethyl]-2-(methylthio)-4,5,6,7-tetrahydro[1.3]oxazolo [5,4-c]pyridine]
CC(=O)c1ccc(-n2ncc3c2CCN(CC(=O)N2CCN(C4CCC4)CC2)C3)cc1 [Compound 92, 1-(4-{5-[2-(4-cyclobutylpiperazin-1-yl)-2-oxoethyl]-4,5,6,7-tetrahydro-1H-pyrazolo[4,3-c]pyridin-1-yl}phenyl)ethanone]
CC1CN(c2ccc3c(n2)CCN(CC(=O)N2CCN(C4CCC4)CC2)C3)CC(C)O1 (centres unmarked) [Compound 182, 6-[2-(4-cyclobutylpiperazin-1-yl)-2-oxoethyl]-2-(2,6-dimethylmorpholin-4-yl)-5,6,7,8-tetrahydro-1,6-naphthyridine]

Same assay, conditions: Table II; assay of Example 7

Ki, < 1000 nM:
O=C(CN1CCc2nn(C3CCOCC3)cc2C1)N1CCN(C2CCC2)CC1 [Compound 685]
Cc1nc(N2CCOCC2)nc2c1CN(CC(=O)N1CCN(C3CCC3)CC1)CC2 [Compound 692, 6-[2-(4-cyclobutylpiperazin-1-yl)-2-oxoethyl]-4-methyl-2-morpholin-4-yl-5,6,7,8-tetrahydropyrido[4,3-d]pyrimidine]

Same assay, conditions: assay of Example 7; "*" in Ki of Table II

Ki, < 1000 nM:
CCC(C)N1CCN(C(=O)CN2CCc3cc(-c4cncnc4)ccc3C2)CC1 (centres unmarked) [Compound 397, 2-[2-(4-sec-butylpiperazin-1-yl)-2-oxoethyl]-6-pyrimidin-5-yl-1,2,3,4-tetrahydroisoquinoline]
O=C(CN1CCc2nc(-c3cc(F)ccc3F)sc2C1)N1CCN(C2CCC2)CC1 [Compound 347, 5-[2-(4-cyclobutylpiperazin-1-yl)-2-oxoethyl]-2-(2,5-difluorophenyl)-4,5,6,7-tetrahydro[1,3]thiazolo [5,4-c]pyridine]
O=C(CN1CCc2nc(-c3ccc(Cl)c(F)c3)sc2C1)N1CCN(C2CCC2)CC1 [Compound 352, 2-(4-chloro-3-fluorophenyl)-5-[2-(4-cyclobutylpiperazin-1-yl)-2-oxoethyl]-4,5,6,7-tetrahydro[1,3]thiazolo [5,4-c]pyridine]
O=C(CN1CCc2nc(-c3cc(Cl)ccc3Cl)sc2C1)N1CCN(C2CCC2)CC1 [Compound 364, 5-[2-(4-cyclobutylpiperazin-1-yl)-2-oxoethyl]-2-(2,5-dichlorophenyl)-4,5,6,7-tetrahydro[1,3]thiazolo [5,4-c]pyridine]
O=C(CN1CCc2nc(-c3cc(C(F)(F)F)cc(C(F)(F)F)c3)sc2C1)N1CCN(C2CCC2)CC1 [Compound 371, 2-[3,5-bis(trifluoromethyl)phenyl]-5-[2-(4-cyclobutylpiperazin-1-yl)-2-oxoethyl]-4,5,6,7-tetrahydro[1,3]thiazolo [5,4-c]pyridine]
O=C(CN1CCc2nc(-c3cccc4c3oc3ccccc34)sc2C1)N1CCN(C2CCC2)CC1 [Compound 342, 5-[2-(4-cyclobutylpiperazin-1-yl)-2-oxoethyl]-2-dibenzo[b,d]furan-4-yl-4,5,6,7-tetrahydro[1,3]thiazolo [5,4-c]pyridine]
CN(C)c1ccc(-c2nc3c(s2)CN(CC(=O)N2CCN(C4CCC4)CC2)CC3)cc1 [Compound 331, 4-{5-[2-(4-cyclobutylpiperazin-1-yl)-2-oxoethyl]-4,5,6,7-tetrahydro[1,3]thiazolo [5,4-c]pyridin-2-yl}-N,N-dimethylaniline]
